Measured values reported in patent US6534073B2, “Skin care cosmetic compositions containing carboxymethylates of branched alcohols and/or ethoxylates thereof” (Unilever Home & Personal Care USA division of Conopco, Inc., priority 2000, dated 2003).
Where two headings read alike, the source gives them in different places. Marks after values point to notes of the source that are not given here.

Experiments:
human sebocytes = assay: Inhibition of sebocyte lipogenesis (14C-acetate incorporation); format: cell-based; details: for inhibition of lipogenesis (result in words): summary of Tables 2 and 3
Procedure: This example provided data on inhibition of sebocyte lipogenesis.
Secondary cultures of human sebocytes obtained from an adult […] were grown in 48-well tissue culture plates (Costar Corp.; Cambridge, Mass.) or 96-well tissue culture plates (Packard Co.; Meriden, Conn.) until confluent. Sebocyte growth medium consisted of Clonetics Keratinocyte Basal Medium (KBM) 5 supplemented with 14 μg/ml bovine pituitary extract, 0.4 μg/ml hydrocortisone, 5 μg/ml insulin, 10 ng/ml epidermal growth factor, 1.2×10^−10 M cholera toxin, 100 units/ml penicillin, and 100 μg/ml streptomycin. All cultures were incubated at 37° C. in the presence of 7.5% CO2. Medium was changed three times per week.
On the day of experimentation, the growth medium was removed and the sebocytes washed three times with sterile Dulbecco's Modified Eagle Medium (DMEM; phenol red free). Fresh DMEM was added to each sample (duplicates, triplicates, or quadruplicates depending on the experiment) with 5 μL of test agent solubilized in ethanol or sterile, distilled water either alone or in the presence of one or 10 μM of retinol. Controls consisted of addition of ethanol alone, retinol alone or phenol red, which has estrogen-like activity and was included as a positive control.
Each plate was returned to the incubator for 20 hours followed by the addition of ^14C-acetate buffer (5 mM final concentration, 56 mCi/mmol specific activity). Sebocytes were returned to the incubator for four hours after which each culture was rinsed three times with phosphate buffered saline to remove unbound label. Radioactive label remaining in the sebocytes was harvested and counted using a Beckman scintillation counter.

[1] = tested on: procollagen I production by neonatal human dermal fibroblasts; assay: Procollagen I production by fibroblasts (slot blot, densitometry); format: cell-based; details: for Average OD Reading / Fold increase Over Control: Table 4; for Average OD Reading: procollagen I densitometer reading, control 0.783; for Fold increase Over Control / % Increase (+) or % decrease (−) over control: procollagen I; for % Increase (+) or % decrease (−) over control: positive control, concentration not given
Procedure: This example measured production of procollagen I by fibroblasts in response to treatment with various straight chain and branched alcohols alone.
Neonatal human dermal fibroblasts were purchased from Clonetics Corp., San Diego, Calif. All materials for cell culture were purchased from Life Technologies, N.Y. (and used in passages 5-10). Cells were seeded at a density of approximately 10,000/well in the inner 48 wells of a 96-well plate in a medium containing DMEM (Dulbecco's Modified Eagle's Medium), high-glucose supplemented with 2 mM L-glutamine, 10% fetal bovine serum, and antibiotic and antimycotic solutions. Cells were then grown to confluence for 2 days. At confluence, the medium was removed and cells were washed with serum-free DMEM, and each well dosed with 200 μl of a solution of a test compound in serum-free DMEM. Each dosing was replicated in a total of six wells. […] After 24 hours, the test compound solution or the control solution was removed and cells redosed with 100 μl of a solution of a test compound in serum-free DMEM.
Nitrocellulose membrane and 3 sheets of filter paper were soaked in TRIS buffered saline (TBS, pH 7.3.). BioRad slot blot apparatus (BioRad Labs, CA) was set up with 3 sheets filter paper on bottom, membrane on top, and tightened. […] TBS was added per well. Vacuum was used to suck TBS through membrane. The test compound solution or control was vortexed, then 100 μl was loaded per well and gravity filtered. Procollagen from the test solution was bound to the membrane at this point in the procedure. Membrane was removed from the apparatus, excess cut off, and bottom right corner notched for orientation. The membrane was placed in blocking solution (5% milk powder in Dulbecco's phosphate buffered saline) overnight at 4° C., with shaking. The membrane was then incubated for 1.5 hrs at room temperature with 1.5 mL Rat Anti-Human Procollagen Amino-Terminal Ab (Chemicon MAB1912) in TBS with 0.1% BSA (Bovine Serum Albumin) (ratio of antibody to buffer/BSA was 1:100) in a sealed bag with shaking. The membrane was then removed; washed 3 times for 5 minutes in TBS/0.1% Tween. The membrane was then incubated for 1 hour at room temperature in 2 mL of Biotinylated Anti-Rat Peroxidase-Conjugated Ab (Vector Labs) in TBS with 0.1% BSA (ratio of antibody to buffer/BSA was 1:1000) in a sealed bag with shaking. The membrane was then stained using the following solution:
12.5 mg 3-amino 9-ethyl carbazole (Sigma)
3.125 (approximately) mL DMF (N,N-dimethylformamide, from Sigma)
The membrane was stained until color developed and the reaction stopped with 2 washes for 10 minutes in tap water. The blot was scanned on a Bio-Rad GS700 Image Analysis densitometer. Percent change from control was calculated from densitometer readings as follows: [(Reading for test compound-Reading for control)/Reading for control]*100. Control has a reading of 100%. Statistical significance (p value) was calculated using student's t-test.
TGF-B is a positive control, ensuring the integrity of the assay: transforming growth factor beta is known to increase procollagen I in fibroblasts.
This example measured production of procollagen I by fibroblasts in response to treatment with various test compounds.
The experiment was conducted as described in Example 1 above. Fold increase was calculated as a ratio of densitometer reading for cells treated with a test compound over control.

[2] = Homo sapiens, Table 2, 14C-acetate label in sebocytes, read-out: % of Control
[3] = Homo sapiens, Table 3, 14C-acetate label in sebocytes, read-out: % of Control
[4] = Table 2, 14C-acetate label in sebocytes, 1 μM
[5] = Table 2, 14C-acetate label in sebocytes, 10 μM
[6] = Table 2, 14C-acetate label in sebocytes, 100 μM

With `O=S1(=O)OC(c2ccc(O)cc2)(c2ccc(O)cc2)c2ccccc21` [Phenol Red, reference compound] the activity at 28 µM (human sebocytes; [2]) was 56.5%, the activity at 280 µM (human sebocytes; [2]) was 43.3% and the activity at 28 µM (human sebocytes; [3]) was 92%. The activity at 280 µM (human sebocytes; [3]) was 61.7%.

`CC1=C(/C=C/C(C)=C/C=C/C(C)=C/CO)C(C)(C)CCC1` [Retinol, reference compound] showed an activity at 1 µM (human sebocytes; Homo sapiens, Table 3, 14C-acetate label in sebocytes, 1 μM, read-out: % of Control) of 91.8% and an activity at 10 µM (human sebocytes; Homo sapiens, Table 3, 14C-acetate label in sebocytes, 10 μM, read-out: % of Control) of 106%.

In the case of “Iso-tridecyl carboxymethylate (sodium salt)”, the “% of Control” value (human sebocytes; [4]) is reported as 81.5* %, the “% of Control” value (human sebocytes; [5]) is reported as 49.6* % and the “% of Control” value (human sebocytes; [6]) is reported as 1.2* %. For the same molecule, the “% of Control” value (human sebocytes; Table 3, 14C-acetate label in sebocytes, 1 μM) was 75.8* %, the “% of Control” value (human sebocytes; Table 3, 14C-acetate label in sebocytes, 10 μM) was 66.0* % and the “inhibition of lipogenesis (result in words)” value (human sebocytes) was “improved inhibition of lipogenesis”.

With “TGF-B: transforming growth factor beta, positive control known to increase procollagen I in fibroblasts [reference compound]” the “Average OD Reading” value ([1]; 0.001%) was 1.348, the “Fold increase Over Control” value ([1]; 0.001%) was 1.72* Fold and the “% Increase (+) or % decrease (−) over control” value ([1]; Table 1 Experiment 1) was “+50* %”. The “% Increase (+) or % decrease (−) over control” value ([1]; Table 1 Experiment 2) was “+140* %”.

iso-tridecyl carboxymethylate was tested, and the “Average OD Reading” value ([1]; 0.0001%) was 0.777, the “Average OD Reading” value ([1]; 0.001%) was 1.295 and the “Fold increase Over Control” value ([1]; 0.0001%) was 0.99 Fold. The “Fold increase Over Control” value ([1]; 0.001%) was 1.65* Fold, the “collagen synthesis by fibroblasts (result in words)” value ([1]; summary of Tables 1 and 4) was “increased collagen production” and the “% of Control” value (human sebocytes; [4]) was 80.0* %. For the same molecule, the “% of Control” value (human sebocytes; [5]) was 58.2* %, the “% of Control” value (human sebocytes; [6]) was 1.4* % and the “inhibition of lipogenesis (result in words)” value (human sebocytes) was “enhanced inhibition of lipogenesis at all tested concentrations”.
